Values joined by “and” are separate entries in the source; they are usually repeats but may differ in a detail not shown here. Equal values may be shown once. One block for each molecule: values may come before it.
Key:
[1] = Pharmacokinetics in whole blood, cynomolgus monkeys; conditions: for % Parent AUCAll: Cynomolgus monkey, 300 mg/kg PO, metabolite AUCall/Parent AUCall x 100
[2] = Pharmacokinetics in whole blood, Sprague-Dawley rats; conditions: Sprague-Dawley rat, metabolite AUCall/Parent AUCall x 100
Method: The whole blood samples (0.5 mL) were collected into syringes that were prefilled with 2.5 mL of ice-cold 0.1% formic acid in acetonitrile. The volume ratio of the whole blood to 0.1% formic acid in acetonitrile was 1/5 (v/v). Samples were frozen (-70°C) until analyzed by LC-MS/MS.
Standard curves and quality control (QC) samples were prepared fresh on the day of analysis by serial dilution of the standard mixture in quenched whole blood (1 part of blood to 5 parts of 0.1% formic acid in acetonitrile) and centrifuged. […] The frozen study samples were thawed in an ice/water bath and centrifuged. Supernatant (50 μL) from standards, QC samples, and study samples was transferred to a 96-well plate and dried completely under nitrogen. The dried residues were reconstituted with 100 μL of 0.1% formic acid in water containing internal standard (5 ng/mL of ^15N/^13C3-RE-024-02) and analyzed by LC-MS/MS.
LC-MS/MS analysis for blood pharmacokinetic samples: Samples were analyzed using an Agilent 1100 binary pump (Agilent Technologies, Santa Clara, CA, USA), connected to an AB Sciex API 6500 mass spectrometer (SCIEX, Framingham, MA, USA). An electrospray ionization source was used, scanning in the positive mode. […] The chromatography column was a Varian Metasil AQ 120–5 C18 column, 5 μm, 50 x 2.00 mm (Part No. A0530050X020) at ambient temperature, with a 0.5 mL/min flow rate and a 20 μL injection volume. Mobile phase (A) consisted of 0.1% formic acid in water; while mobile phase (B) consisted of 0.1% formic acid in acetonitrile:water (9:1, v/v).
Quantitation of in vivo samples: Peak areas were integrated using Analyst software (AB Sciex, Concord, Ontario, Canada). […] Calibration standards (at a minimum 7 per curve) were fit by linear regression with (1/x^2) weighting. QC samples were used (triplicate) at 3 concentrations for all tandem mass spectrometry (MS/MS) runs.
Pharmacokinetic calculations: PK analysis was performed using Phoenix WinNonlin®, Build 6.3.0.395 (Certara, Princeton, NJ, USA) using a non-compartmental model (PO dose = model 200 for extravascular dosing). […] Post-dose concentrations below the limit of quantitation (BLQ) were omitted from calculation.

[3] = Pharmacokinetics in whole blood, CD-1 mice; conditions: for % Parent AUCAll: CD1 mouse, metabolite AUCall/Parent AUCall x 100; for Whole Blood Conc. of compound 3: CD-1 mice; for concentration at 2 h / concentration at 8 h / concentration at 0.5 h: male, CD-1, mouse, whole blood, po, Whole Blood Conc. of compound 3, CD-1 mice

% Parent AUCAll [1]: 9%
concentration at 0.25 h ([1]; cynomolgus monkey, whole blood, po, 300 mg/kg, Concentration of compound 3 in whole blood, cynomolgus monkeys, single oral 300 mg/kg fosmetpantotenate, 0.25 hr, LLOQ 2.13 nM): 5.33 nM
concentration at 4 h ([1]; cynomolgus monkey, whole blood, po, 300 mg/kg, Concentration of compound 3 in whole blood, cynomolgus monkeys, single oral 300 mg/kg fosmetpantotenate, 4 hr, LLOQ 2.13 nM): 432 nM
concentration at 8 h ([1]; cynomolgus monkey, whole blood, po, 300 mg/kg, Concentration of compound 3 in whole blood, cynomolgus monkeys, single oral 300 mg/kg fosmetpantotenate, 8 hr, LLOQ 2.13 nM): 619 nM
Concentration of compound 3 in whole blood ([1]; cynomolgus monkeys, single oral 300 mg/kg fosmetpantotenate, 0.25 hr, LLOQ 2.13 nM, 300 mg/kg): 3.41 nM
Concentration of compound 3 in whole blood ([1]; cynomolgus monkeys, single oral 300 mg/kg fosmetpantotenate, 4 hr, LLOQ 2.13 nM, 300 mg/kg): 654.2 nM
Concentration of compound 3 in whole blood ([1]; cynomolgus monkeys, single oral 300 mg/kg fosmetpantotenate, 8 hr, LLOQ 2.13 nM, 300 mg/kg): 508.25 nM
% Parent AUCAll ([2]; 300 mg/kg PO): 4,130%
% Parent AUCAll ([2]; 700 mg/kg PO): 209%
% Parent AUCAll ([3]; 100 mg/kg PO): 8,900%
% Parent AUCAll ([3]; 300 mg/kg PO): 18,900%
% Parent AUCAll ([3]; 700 mg/kg PO): 1,990%
Whole Blood Conc. of compound 3 ([3]; single 100 mg/kg RE-024-02 PO, 4 hr, LLOQ 6 ng/mL): BQL
Whole Blood Conc. of compound 3 ([3]; single 100 mg/kg RE-024-02 PO, 4 hr, LLOQ 21.3 nM): BQL
Whole Blood Conc. of compound 3 ([3]; single 700 mg/kg RE-024-02 PO, 0.5 hr, LLOQ 6 ng/mL, 700 mg/kg): 126 ng/mL and 156 ng/mL and 189 ng/mL
Whole Blood Conc. of compound 3 ([3]; single 700 mg/kg RE-024-02 PO, 0.5 hr, LLOQ 21.3 nM, 700 mg/kg): 448.1 nM and 554.8 nM and 672.1 nM
Whole Blood Conc. of compound 3 ([3]; single 700 mg/kg RE-024-02 PO, 2 hr, LLOQ 6 ng/mL, 700 mg/kg): 67.2 ng/mL and 69.6 ng/mL and 72 ng/mL
Whole Blood Conc. of compound 3 ([3]; single 700 mg/kg RE-024-02 PO, 2 hr, LLOQ 21.3 nM, 700 mg/kg): 239 nM and 247.5 nM and 256 nM
concentration at 2 h ([3]; 100 mg/kg, single 100 mg/kg RE-024-02 PO, 2 hr, LLOQ 6 ng/mL): 6.7 ng/mL
concentration at 2 h ([3]; 100 mg/kg, single 100 mg/kg RE-024-02 PO, 2 hr, LLOQ 21.3 nM): 23.7 nM
concentration at 8 h ([3]; 100 mg/kg, single 100 mg/kg RE-024-02 PO, LLOQ 6 ng/mL): 6.1 ng/mL
concentration at 8 h ([3]; 100 mg/kg, single 100 mg/kg RE-024-02 PO, LLOQ 21.3 nM): 21.6 nM
concentration at 8 h ([3]; 300 mg/kg, single 300 mg/kg RE-024-02 PO, LLOQ 6 ng/mL): 7.6 ng/mL
concentration at 8 h ([3]; 300 mg/kg, single 300 mg/kg RE-024-02 PO, LLOQ 21.3 nM): 26.9 nM
concentration at 0.5 h ([3]; 700 mg/kg, single 700 mg/kg RE-024-02 PO, 0.5 hr, LLOQ 6 ng/mL): 162 ng/mL
concentration at 0.5 h ([3]; 700 mg/kg, single 700 mg/kg RE-024-02 PO, 0.5 hr, LLOQ 21.3 nM): 576 nM
concentration at 2 h ([3]; 700 mg/kg, single 700 mg/kg RE-024-02 PO, 2 hr, LLOQ 6 ng/mL): 48.2 ng/mL
concentration at 2 h ([3]; 700 mg/kg, single 700 mg/kg RE-024-02 PO, 2 hr, LLOQ 21.3 nM): 172 nM
SMILES: CC1(C)COP(=O)(O)O[C@H]1C(=O)NCCC(=O)O [Compound 3]

SMILES: COC(=O)[C@H](C)NP(=O)(OCC(C)(C)[C@@H](O)C(=O)NCCC(=O)O)Oc1ccccc1 (stereo partly shown) [Compound 4]
% Parent AUCAll [1]: 301%
concentration at 0.083 h ([1]; cynomolgus monkey, in vivo, po, 300 mg/kg, Concentration of compound 4 in whole blood, cynomolgus monkeys, single oral 300 mg/kg fosmetpantotenate, 0.083 hr, sum of diastereomers, LLOQ 1.30 nM): 13.2 nM
concentration at 2 h ([1]; cynomolgus monkey, in vivo, po, 300 mg/kg, Concentration of compound 4 in whole blood, cynomolgus monkeys, single oral 300 mg/kg fosmetpantotenate, 2 hr, sum of diastereomers, LLOQ 1.30 nM): 5070 nM
concentration at 4 h ([1]; cynomolgus monkey, in vivo, po, 300 mg/kg, Concentration of compound 4 in whole blood, cynomolgus monkeys, single oral 300 mg/kg fosmetpantotenate, 4 hr, sum of diastereomers, LLOQ 1.30 nM): 665 nM
Concentration of compound 4 in whole blood ([1]; cynomolgus monkeys, single oral 300 mg/kg fosmetpantotenate, 0.083 hr, sum of diastereomers, LLOQ 1.30 nM, 300 mg/kg): 8.08 nM
Concentration of compound 4 in whole blood ([1]; cynomolgus monkeys, single oral 300 mg/kg fosmetpantotenate, 2 hr, sum of diastereomers, LLOQ 1.30 nM, 300 mg/kg): 5694.67 nM
Concentration of compound 4 in whole blood ([1]; cynomolgus monkeys, single oral 300 mg/kg fosmetpantotenate, 4 hr, sum of diastereomers, LLOQ 1.30 nM, 300 mg/kg): 600.1 nM
% Parent AUCAll ([2]; 300 mg/kg PO): 2,820%
% Parent AUCAll ([2]; 700 mg/kg PO): 849%
% Parent AUCAll ([3]; 100 mg/kg PO): 3,180%
% Parent AUCAll ([3]; 300 mg/kg PO): 12,600%
% Parent AUCAll ([3]; 700 mg/kg PO): 10,500%

— paper PMC5844530, “Fosmetpantotenate (RE-024), a phosphopantothenate replacement therapy for pantothenate kinase-associated neurodegeneration: Mechanism of action and efficacy in nonclinical models” (PLoS ONE, 2018)
